Key:
Assay in all cases: relative viability (nuclei count vs DMSO), 5 days (fraction); higher = more cells survive
[1] = system: SK-LU-1
Outline: (§1)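 Relative viability is defined as nuclei in treated wells over nuclei in vehicle wells. Duplicate plates were run and medians reported. Lung cancer cell lines in 1536-well plates were dosed by pin tool one day after seeding, with one drug or with a fixed anchor-drug dose plus five library-drug doses (not always all listed) in √10 steps, and nuclei were counted after 5 days.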

[2] = system: NCI-H1734
Outline: as §1

[3] = system: HCC-78
Outline: as §1

[4] = system: HCC-15
Outline: as §1

[5] = system: LXF-289
Outline: as §1

[6] = system: NCI-H1915
Outline: as §1

[7] = system: NCI-H358
Outline: as §1

[8] = system: NCI-H1975
Outline: as §1

[9] = system: NCI-H1755
Outline: as §1

[10] = system: NCI-H2228
Outline: as §1

[11] = system: NCI-H2347
Outline: as §1

## NC(=O)Nc1cc(-c2cccc(F)c2)sc1C(=O)N[C@H]1CCCNC1 [AZD7762] + Cc1nc(NC(=O)N2CCC[C@H]2C(N)=O)sc1-c1ccnc(C(C)(C)C(F)(F)F)c1 [Alpelisib] (partner 2 µM)
[1]; first compound 0.01 µM
  relative viability: 1.14
[1]; first compound 0.03162 µM
  relative viability: 0.72
[1]; first compound 0.1 µM
  relative viability: 0.329
[1]; first compound 0.3162 µM
  relative viability: 0.207
[1]; first compound 1 µM
  relative viability: 0.236
[2]; first compound 0.01 µM
  relative viability: 0.729
[2]; first compound 0.03162 µM
  relative viability: 0.782
[2]; first compound 0.1 µM
  relative viability: 0.775
[2]; first compound 0.3162 µM
  relative viability: 0.753
[2]; first compound 1 µM
  relative viability: 0.646
[3]; first compound 0.01 µM
  relative viability: 0.371
[3]; first compound 0.03162 µM
  relative viability: 0.419
[3]; first compound 0.1 µM
  relative viability: 0.361
[3]; first compound 0.3162 µM
  relative viability: 0.394
[3]; first compound 1 µM
  relative viability: 0.287
[4]; first compound 0.01 µM
  relative viability: 0.995
[4]; first compound 0.03162 µM
  relative viability: 0.945
[4]; first compound 0.1 µM
  relative viability: 0.983
[4]; first compound 0.3162 µM
  relative viability: 0.93
[4]; first compound 1 µM
  relative viability: 1.12
[5]; first compound 0.01 µM
  relative viability: 1.01
[5]; first compound 0.03162 µM
  relative viability: 1.07
[5]; first compound 0.1 µM
  relative viability: 1.12
[5]; first compound 0.3162 µM
  relative viability: 1.04
[5]; first compound 1 µM
  relative viability: 1.14
[6]; first compound 0.01 µM
  relative viability: 1.06
[6]; first compound 0.03162 µM
  relative viability: 1.12
[6]; first compound 0.1 µM
  relative viability: 1.09
[6]; first compound 0.3162 µM
  relative viability: 1.09
[6]; first compound 1 µM
  relative viability: 0.997
[7]; first compound 0.01 µM
  relative viability: 0.819
[7]; first compound 0.03162 µM
  relative viability: 0.964
[7]; first compound 0.1 µM
  relative viability: 0.837
[7]; first compound 0.3162 µM
  relative viability: 0.629
[7]; first compound 1 µM
  relative viability: 0.33
[8]; first compound 0.01 µM
  relative viability: 0.678
[8]; first compound 0.03162 µM
  relative viability: 0.585
[8]; first compound 0.1 µM
  relative viability: 0.579
[8]; first compound 0.3162 µM
  relative viability: 0.436
[8]; first compound 1 µM
  relative viability: 0.322
[9]; first compound 0.01 µM
  relative viability: 0.957
[9]; first compound 0.03162 µM
  relative viability: 0.924
[9]; first compound 0.1 µM
  relative viability: 0.999
[9]; first compound 0.3162 µM
  relative viability: 0.907
[9]; first compound 1 µM
  relative viability: 0.547
[10]; first compound 0.01 µM
  relative viability: 0.886
[10]; first compound 0.03162 µM
  relative viability: 0.666
[10]; first compound 0.1 µM
  relative viability: 0.8
[10]; first compound 0.3162 µM
  relative viability: 0.407
[10]; first compound 1 µM
  relative viability: 0.19
[11]; first compound 0.01 µM
  relative viability: 1.07
[11]; first compound 0.03162 µM
  relative viability: 0.993
[11]; first compound 0.1 µM
  relative viability: 1.11
[11]; first compound 0.3162 µM
  relative viability: 1.26
[11]; first compound 1 µM
  relative viability: 1.01
